The results in this text go back to patent US10328164B2, “Radiopharmaceutical products” (GE HEALTHCARE LIMITED, priority 2006, dated 2019).

For the data set the following is noted: tetrofosmin kit with ascorbic acid radioprotectant, without air addition step; post preparation. From the text:
The tetrofosmin kit may optionally comprise a radioprotectant, as defined above. […] Med. Comm., 21, 845-849 (2000)] and the Myoview™ Package Instructions.

Turning to `CCOCC[PH+](CCOCC)CC[PH+](CCOCC)CCOCC.CCOCC[PH+](CCOCC)CC[PH+](CCOCC)CCOCC.[O]=[99Tc]=[O]` [^99mTc-tetrofosmin, ^99mTc(O)2(tetrofosmin)2^+], the post-reconstitution stability result is “up to 12 hours”.
